Measurements published in the SangsterLogP compilation.
Non-standard residues stand in square brackets, D forms with d. Residues, ends and D or L forms follow the SMILES beside them. Sar = CNCC(=O)O

Experiments:
[1] = method code SF, from DOI: 10.1021/jm0201114, PMID: 12238930; details: pH 7.4
[2] = method code SF-RC, from DOI: 10.1016/0969-8051(94)00118-4, PMID: 7550031; details: pH 7.4
[3] = not given; remark: listed apart in the source
[4] = method code SF-AS, from DOI: 10.1248/cpb.26.2832
[5] = method code SF, from PMID: 718082
[6] = method code SF-HPLC, from DOI: 10.1016/j.ejpb.2012.03.006, PMID: 22469554
[7] = method code SF, from DOI: 10.1016/j.bmcl.2013.12.011, PMID: 24342238
[8] = method code SF-HPLC, from DOI: 10.1248/cpb.39.1032
[9] = method code SF-RC, from DOI: 10.1016/j.nucmedbio.2007.12.005, PMID: 18355688; details: pH 7.4
[10] = method code SF, from DOI: 10.1023/a:1015958526423, PMID: 2095573
[11] = method code RP-TLC, from DOI: 10.1016/s0021-9673(03)00617-4, PMID: 12830921
[12] = method code SF, from DOI: 10.1016/j.ejmech.2008.03.040, PMID: 18511157; details: pH 7.4
[13] = method code SF, from DOI: 10.1021/jm5017544, PMID: 25671691; details: pH 7.4
[14] = method code SF-AS, from PMID: 17296250; details: pH 7.2
[15] = not given; remark: listed apart in the source
[16] = not given; remark: listed apart in the source
[17] = not given; remark: listed apart in the source
[18] = pH 7.4
[19] = method code SF-AS, from PMID: 474167
[20] = method code SF-RC, from DOI: 10.1016/j.nucmedbio.2011.10.019, PMID: 22226022; details: pH 7.4
[21] = method code SF-RC, from PMID: 26778147
[22] = not given; remark: listed apart in the source
[23] = method code SF-HPLC, from DOI: 10.1021/jf0483669, PMID: 15913295; details: pH 7.4
[24] = method code SF-AS, from DOI: 10.1016/s0021-9673(03)00617-4, PMID: 12830921
[25] = method code SF-HPLC, from DOI: 10.1016/j.ejps.2016.07.010, PMID: 27422078; details: pH 7.4
[26] = method code SF, from DOI: 10.1021/bi00418a003, PMID: 3196678
[27] = method code SF, from DOI: 10.1021/jm4003632, PMID: 23662903; details: pH 7.4
[28] = method code SF-HPLC, from DOI: 10.1016/s0223-5234(98)80037-8; details: pH 7.4
[29] = method code SF, from DOI: 10.1002/cmdc.201000013, PMID: 20373323; details: pH 7.4
[30] = method code SF, from DOI: 10.1016/j.ejpb.2011.02.007, PMID: 21329757
[31] = method code SF-RC, from DOI: 10.1016/0378-5173(86)90124-9
[32] = method code SF-AS, from DOI: 10.1016/s0022-3565(25)38749-5, PMID: 8182532; details: pH 7.4
[33] = method code SF-HPLC, from DOI: 10.1023/a:1015837931256, PMID: 1788153; details: pH 7.4
[34] = method code SF, from DOI: 10.1021/jm9910932, PMID: 10633041; details: pH 7.4
[35] = method code SF, from Zhang, H, Oberg. B.; Liu, X.; Fan, Z.; Jia, J.; et, a. (2008). Octanol/water partition coefficient determination of novel fungicide SYP-3343 by flask-shaking method using HPLC. Journal of Safety and …; details: pH 5.0
[36] = method code SF-RC, from DOI: 10.1016/j.nucmedbio.2006.10.003, PMID: 17210465; details: pH 7.4
[37] = method code SF-HPLC, from DOI: 10.1002/ps.2780290114
[38] = not given; remark: listed apart in the source
[39] = method code SF, from Huang, J.; Leng, X. (1993). Interaction of rat hepatocyte and cytochrome P 450 with pyrethroids in vitro. Dong Wu Xue Bao, 39(4)418-423.

Work on CCCCCCN1C(=O)NC(c2ccccc2)(c2ccccc2)C1=O yielded a logP of 4.39.

Work on COc1cc2ncnc(N3CCN(C(=S)NCCc4ccco4)CC3)c2cc1OC yielded a logD [1] of 2.75.

Work on COc1cc2c(cc1OC)C1CC(O)(C=CI)C(CC(C)C)CN1CC2 (stereo not given) yielded a logD [2] of 3.24.

With O=C(NC1CCCCCCC1)NS(=O)(=O)c1cnccc1Nc1cccc(C(F)(F)F)c1 the logP [3] was 2.29.

With CC(=O)[C@H]1CC[C@H]2[C@@H]3CCC4=CC(=O)CC[C@]4(C)[C@H]3C(O)C[C@]12C (stereo not given in full) the logP [4] was 2.36.

With CC(=O)Nc1c(I)c(COC2C(O)C(O)OC(CO)C2O)c(I)c(COC2C(O)C(O)OC(CO)C2O)c1I (stereo not given) the logP [5] was -1.92.

Molecule O=C(CCCCCCCC(=O)Oc1ccc(O)cc1)Oc1ccc(O)cc1 has a logP [6] of 4.99.

For COc1cc(C=CC(O)=CC(=O)C=Cc2ccc(O)c(N(C)C)c2)ccc1O, the logP [7] was 3.65.

Molecule C=C[C@@]1(C)CC(=O)[C@]2(O)[C@@]3(C)[C@@H](O)CCC(C)(C)[C@@H]3[C@H](O)[C@H](OC(C)=O)[C@@]2(C)O1 has a logP [8] of 3.12.

With CN(Cc1ccccc1)C(=O)Cc1c(-c2ccc(Cl)cc2)nc2c(Cl)cc(Cl)cn12 the logD [9] was 2.67.

Work on COc1cc(C)c(/C=C/C(C)=C/C=C/C(C)=C/C(=O)O)c(C)c1C yielded a logP [10] of 6.4.

Molecule CCOC(=O)C1=C[C@]2(CC)CCCN3CCc4c(n1c1ccccc41)[C@@H]32 has a logP [11] of 4.23.

For N#Cc1c(C(=O)NC2CCCCC2)nn(-c2ccc(Cl)cc2Cl)c1-c1ccc(I)cc1, the logD [12] was 3.9.

CN(C)c1ccc(N=Nc2nc3ccc(OCCOCCOCCF)cc3s2)cc1 gave a logD [13] of 2.05.

For CC(C=CC1=C(C)CCC1(C)C)=CC=CC(C)=CC=NNC(N)=S, the logD [14] was 1.05.

In the case of CC[C@H](C)[C@H](N)C(=O)N[C@@H](CC(C)C)C1(c2ccc(Cl)cc2)CCC1, the logP [15] is reported as 4.75.

Molecule Cc1ccc(N2C(=O)C(=O)N(C(=O)COc3ccc4c(C)cc(=O)oc4c3C)C2=O)cc1 has a logP [16] of 0.84.

Work on COc1cc2c(cc1OC)C1Cc3ccc(OC)c(OC)c3CN1CC2 (stereo not given) yielded a logP [17] of 2.6.

Work on Cc1c(C(=O)Nc2ccc(F)cc2)nn(-c2ccc(Cl)cc2Cl)c1-c1ccc(Br)cc1 yielded a logD [18] of 4.

With CC(=O)[C@@]1(O)CC[C@H]2[C@@H]3CCC4=CC(=O)CC[C@]4(C)[C@H]3CC[C@@]21C the logP [19] was 3.19.

With CCCCOc1c(OC)ccc2cc(C(=O)NCc3ccc(F)cc3)c(=O)[nH]c12 the logD [20] was 4.4.

Molecule O=C(Nc1ccc(F)cc1)c1ccc(N2CCN(C(=O)c3ccccc3C(F)(F)F)CC2)nn1 has a logP [21] of 2.08.

CC(C)c1nc(N(C)S(C)(=O)=O)nc(-c2ccc(F)cc2)c1/C=C\C(O)CC(O)CC(=O)O (stereo not given) showed a logP [22] of 2.4.

With O=c1c(-c2ccc(O)cc2)coc2cc(O[C@@H]3O[C@H](CO)[C@@H](O)[C@H](O)[C@H]3O)cc(O)c12 the logD [23] was 0.97.

CCC12CCCN3CCc4c(n(c5ccccc45)C(O)(C(=O)OC)C1)C32 (stereo not given) showed a logP [24] of 2.96.

In the case of Cc1cc(=O)c2c(O)cc(O)c(C3CCN(C)CC3OC(=O)C(C)(C)C)c2o1 (stereo not given), the logD [25] is reported as 1.66.

C[C@]12CC[C@@H]3c4ccc(CCCO)cc4CC[C@H]3[C@@H]1CC[C@@H]2O gave a logP [26] of 2.7.

For CC(C)n1ncnc1-c1nc2c(s1)CCOc1cc(-c3cnn(CCO)c3)ccc1-2, the logD [27] was 3.9.

In the case of COc1ccc2cc(C(C)C(=O)OCN3C(=O)c4ccccc4C3=O)ccc2c1 (stereo not given), the logD [28] is reported as 5.03.

Work on O=C1NC(=O)C(c2ccc(Oc3ccccc3)cc2)(N2CCN(CCF)CC2)C(=O)N1 yielded a logD [29] of 2.15.

In the case of C#C[C@]1(O)CC[C@H]2[C@@H]3CCC4=Cc5oncc5C[C@]4(C)[C@H]3CC[C@@]21C, the logP [30] is reported as 4.21.

Work on CCCCC[C@H](O)/C=C/[C@@H]1[C@@H](C/C=C\CCCC(=O)OC)[C@@H](O)C[C@H]1O yielded a logP [31] of 3.07.

Molecule O=S1(=O)c2cccc3cccc(c23)N1CCCN1CCN(c2ccc(F)cc2)CC1 has a logD [32] of 3.6.

Work on Nc1nc2c(ncn2COCCOC(=O)c2ccc(CN3CCOCC3)cc2)c(=O)[nH]1 yielded a logD [33] of -0.05.

For CC(=O)NCC(=O)N(C)CC(=O)NC(CC(C)C)C(=O)NC(Cc1ccccc1)C(N)=O (stereo not given) (Ac-G[Sar]LF-NH2; configuration not given here), the logD [34] was 1.64.

Work on CO/C=C(/C(=O)OC)c1ccccc1COc1cc(C)nn1-c1ccc(Cl)cc1 yielded a logD [35] of 4.37.

For CN(C)c1ccc(C=Cc2ccc(OCCOCCOCCF)cc2)cc1, the logD [36] was 2.41.

For CCCCS/C(=N\c1cccnc1)SCc1ccc(C(C)(C)C)cc1, the logP [37] was 7.

With CCN(CC)C(=O)Cc1c(-c2ccc(OC)cc2)nn2c(C)cc(C)nc12 the logP [38] was 2.44.

With CC1(C)C(C(=O)OC(C#N)c2cccc(Oc3ccccc3)c2)C1(C)C (stereo not given) the logP [39] was 5.5.
